Test results as given in patent US8633177B2, “Nitroxyl (HNO) releasing compounds and uses thereof in treating diseases” (The United States of America, as represented by the …, priority 2010, dated 2014).
Where two headings read alike, the source gives them in different places. Values belong to the molecule of their own block, whether it stands above or below them.

Experiments:
COX-2 mRNA = assay: COX mRNA levels; type: cell-based; conditions: Control 1.0
Excerpt: PGE2 levels are a direct measure of COX-2 activity. […] Increased COX-2 expression in the presence of aspirin has been reported previously (Davies et al., Alimentary Pharm. & Ther. 11(6):1101-08 (1997))). Both DEA/NO and DEA/NO-aspirin seem to augment the effect of aspirin while IPA/NO and IPA/NO-aspirin nullifies the effect and brings it back to the control level (Table 3).

[1] = system: MB-231 breast cancer cell lines
Method: (§2) Intracellular NO/HNO release from the derivatized NSAIDs was determined using 4-amino-5-methylamino-2′,7′-difluorofluoroescein diacetate (DAF-FM diacetate) as in Example 9.

[2] = system: MB-231 breast cancer cell lines; assay: DAF assay of cell membrane penetration, MB-231; conditions: MB-231 cell line
Method: as §2

[3] = Spontaneous decomposition kinetics by UV spectrophotometry in PBS; type: physicochemical
Method: (§1) The rate constants of decomposition were measured spectrophotometrically by monitoring the decrease in absorbance of peaks at ˜240-250 nm characteristic of the diazeniumdiolate functionality. The hydrolysis medium consisted of the metal chelator diethylenetriaminepentaacetic acid (DTPA, 50 μM) in calcium- and magnesium-free Dulbecco's phosphate-buffered saline (PBS, pH 7.4). UV-visible spectroscopy was performed with a Hewlett-Packard 8453 diode-array spectrophotometer equipped with Agilent 89090A thermostat set to 37° C. The spectrophotometer was blanked after warming the cuvette containing buffer at the appropriate pH in the instrument heat block for 5 min. For esterase-containing reactions, porcine liver esterase (20 μL; Sigma; suspension in 3.2 M (NH4)2SO4, pH 8) was added to the reaction buffer before blanking. Upon addition of IPA/NO (1) or AcOM-IPA/NO (2) (≦10 μL of stock), the cuvette was capped and inverted to mix. Spectra were collected at 0.5- to 60-s intervals for time periods of 2-120 min or until A∞<0.05. Kinetic analysis was performed by fitting the data to an exponential decay (A=ΔAe^−kt+A∞) using KaleidaGraph v.3.1.
To gain insight into the mechanistic origins of this unexpected finding, the pH/rate profiles of the diazeniumdiolates 1 and 2 were explored. As previously established and shown in FIG. 3A, hydrolysis of 1 slowed as the pH was increased from 3 to 10, with a small increase in rate thereafter. This was the opposite of the results with 2, whose hydrolysis rate was essentially first order in hydroxide ion concentration between pH 5 and 11 (FIG. 3B).

porcine liver esterase = assay: Esterase-catalyzed hydrolysis followed by UV spectrophotometry; type: in vitro ADME; conditions: pH 7.4
Method: FIGS. 4A-C are graphs illustrating spontaneous hydrolysis (FIGS. 4A and 4B) and esterase-catalyzed hydrolysis (FIG. 4C) of 2 in an embodiment of the invention. In FIG. 4A, spectra were collected every 60 s (10-min intervals shown) after dissolving 2 in PBS (pH 7.4) at 37° C., and only loss of the parent compound was observed. In FIG. 4B, the pH was elevated to 12, and scans were collected every 0.5 s (through 2.5 s and 3.5, 5.5, 9.5, and 54.5 shown). In FIG. 4C, porcine liver esterase (20 μL in 3 mL) was added (pH 7.4), and spectra were collected every 10 s. Hydrolysis of 2 (λmax 236 nm) to 1 (λmax 250 nm) was complete within 40 s (0.067 s^−1) under these conditions. […] Elevation of the intensity near 200 nm indicated formation of autoxidation products such as nitrite. Deaeration inhibited this peak (data not shown).
as §1

[4] = NO quantified by chemiluminescence during hydrolysis; type: physicochemical; conditions: neutral pH
Method: In addition to HNO measurements as described above by reductive nitrosylation of metmyoglobin, NO was quantified by chemiluminescence assay, N2O by gas chromatography, and nitrite ion by the Griess assay.
Detection of HNO was also carried out using the chemiluminescence method in, 1 mM ferricyanide solution.

[5] = Hydrolysis at pH 11 followed by NMR; type: physicochemical
Method: Organic products of the hydrolysis of 1 and 2 were quantified by integrating their NMR spectra. For pH 7.4, 3.9 mM solutions in 0.1 M phosphate buffer were employed. For pH 11, 4.9 mM solutions of 1 and 2 in 50 mM sodium carbonate were studied. Samples were run on a Varian Inova 400 MHz NMR with a Dell Precision 390 workstation. The samples were run at 37° C. and water suppression was achieved by using the preset pulse sequence. Peaks were identified by comparison with authentic standards.

ventricular myocytes = assay: Sarcomere shortening in isolated ventricular myocytes; type: cell-based, C57BL/6 male mice; conditions: 3 μM
Method: A stock solution of 2 in DMSO was freshly prepared prior to each experiment and stored on ice protected from the light. Liberase blendzyme 3 was purchased from Roche Diagnostics (Mannheim) while CaCl2, DMSO, and glucose were purchased from Merck (Darmstadt). Calcium-free perfusion buffer contained 113 mM NaCl, 4.7 mM KCl, 0.6 mM KH2PO4, 0.6 mM Na2HPO4, 1.2 mM MgSO4, 12 mM NaHCO3, 10 mM KHCO3, 30 mM taurine, 5.5 mM glucose, 10 mM 2,3-butanedione monoxime, and 10 mM 4-(2-hydroxyethyl)-1-piperazineethanesulfonic acid (HEPES) at pH 7.4. Digestion buffer contained an additional 0.1 mg/mL of recombinant collagenases/proteases (Liberase blendzyme 3) and 12.5 μM CaCl2. IonOptix solution for the sarcomere shortening measurements contained 135 mM NaCl, 4.7 mM KCl, 0.6 mM KH2PO4, 0.6 mM Na2HPO4, 1.2 mM MgSO4, 1.25 mM CaCl2, 20 mM glucose, and 10 mM HEPES at pH 7.46.
C57BL/6 male mice (13-15 weeks) were used in the present study. Ventricular myocytes were isolated from wild type hearts using a modified protocol of O'Connell et al., (AfCS Research Reports, 1(5): 1-9 (2003)). […] After further centrifugation, ionOptix buffer was added on the pellet and sarcomere shortening was assessed on field stimulation (1 Hz with 4-ms duration, 10 V) using a video-based sarcomere length detection system (IonOptix Corporation) at room temperature.

[6] = porcine liver esterase 20 μL in 3 mL

Structure (SMILES): CCN(CC)[N+]([O-])=N[O-].[Na+] [DEA/NO, O^2-Sodium 1-(N,N-Diethylamino)diazen-1-ium-1,2-diolate, reference compound]
COX-2 mRNA level relative to control (COX-2 mRNA): 6.0

cell membrane penetration [1]: penetrated cell membranes
Structure (SMILES): COc1ccc2c(c1)c(CC(=O)OCON=[N+]([O-])NC(C)C)c(C)n2C(=O)c1ccc(Cl)cc1 [IPA/NO-indomethacin, O^2-(methyl2-(1-(4-chlorobenzoyl)-5-methoxy-2-methyl-1H-indol-3-yl)acetate)-1-(N-isopropylamino)-diazen-1-ium-1,2-diolate]

Structure (SMILES): CC(C)N[N+]([O-])=NOC(=O)c1cccnc1Nc1cccc(C(F)(F)F)c1 [IPA/NO-niflumic acid, O^2-(2-(3-(trifluoromethyl)phenylamino)nicotinate)-1-(N-isopropylamino)-diazen-1-ium-1,2-diolate]
cell membrane penetration [2]: penetrated cell membranes

Structure (SMILES): CC(=O)OCO/N=[N+](\[O-])NC(C)C [Compound 2, O^2-(acetoxymethyl)1-(isopropylamino)diazen-1-ium-1,2-diolate]
hydrolysis rate relative to 1 ([3]; physiological pH): an order of magnitude slower
rate of hydrolysis of 2 to 1 (porcine liver esterase; [6]): 0.067 s⁻¹
time to complete hydrolysis of 2 to 1 (porcine liver esterase; [6]): ≤ 40 s
total amount of NO detected on hydrolysis ([4]; NO-specific chemiluminescence detector): less than 1 % of theoretical yield
time to complete dissociation ([5]; 37° C., pH 11 carbonate buffer): ≤ 5 min
change in sarcomere shortening relative to baseline, versus 1 (ventricular myocytes): approximately 4 fold

rate of decay of 1 ([3]; FIG. 3A, PBS with 50 μM DTPA, 37° C.): 0.0012 s⁻¹
hydrolysis rate relative to 2 ([3]; pH 11, more slowly than 2): 100 fold
rate of decay of 1 (porcine liver esterase; FIG. 4C, esterase present): 0.0033 s⁻¹
species produced on spontaneous hydrolysis [4]: produced both NO and HNO
hydrolysis at pH 11 ([5]; pH 11): hydrolyzed slowly
Structure (SMILES): CC(C)N[N+]([O-])=N[O-].[Na+] [Compound 1, sodium 1-(N-isopropylamino)diazen-1-ium-1,2-diolate, reference compound]
COX-2 mRNA level relative to control (COX-2 mRNA): 1.2

cell membrane penetration [1]: penetrated cell membranes
Structure (SMILES): CCN(CC)[N+]([O-])=NOCOC(=O)Cc1c(C)n(C(=O)c2ccc(Cl)cc2)c2ccc(OC)cc12 [DEA/NO-indomethacin, O^2-(methyl2-(1-(4-chlorobenzoyl)-5-methoxy-2-methyl-1H-indol-3-yl)acetate)-1-(N,N-Diethylamino)-diazen-1-ium-1,2-diolate]
